System: 485176-168-R4-J1-PDC complex spheroid growth
Assay: Anticancer human tumor 485176-168-R4-J1-PDC patient-derived pancreatic adenocarcinoma cell line growth inhibition [RAS]
Conditions: for IC50: curve of first compound; for viability, T/C: stronger effect = lower value
In short: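 Tumour cells grown as complex spheroids with HUVEC endothelial cells and mesenchymal stem cells, treated with RAS pathway inhibitor combinations. Each agent spans half-log steps from near clinical Cmax, or 10 microM where Cmax is unknown.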
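Note: spheroids exposed to compounds for seven days before readout.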
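Throughout, for viability, T/C: luminescence viability expressed relative to DMSO vehicle wells set as 100%.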

CCc1c2c(nc3ccc(O)cc13)-c1cc3c(c(=O)n1C2)COC(=O)[C@]3(O)CC + CCn1c(-c2cccnc2C(C)OC)c2c3cc(ccc31)N1CCOC(CC(NC(=O)C(C(C)C)N(C)C(=O)C3(F)CCN(C(=O)C#CC(C)(C)N(C)C)CC3)C(=O)N3CCCC(N3)C(=O)OCC(C)(C)C2)C1
IC50 (second compound 0.000949 µM): 0.0127 µM
IC50 (second compound 0.003 µM): 0.00873 µM
IC50 (second compound 0.00949 µM): 0.015 µM
IC50 (second compound 0.03 µM): 0.0125 µM
IC50 (second compound 0.0949 µM): 0.00674 µM
IC50 (second compound 0.3 µM): 0.00731 µM
viability, T/C (second compound 0.000949 µM, first compound 0.000949 µM): 89%
viability, T/C (second compound 0.000949 µM, first compound 0.003 µM): 84.4%
viability, T/C (second compound 0.000949 µM, first compound 0.00949 µM): 56%
viability, T/C (second compound 0.000949 µM, first compound 0.03 µM): 27.5%
viability, T/C (second compound 0.000949 µM, first compound 0.0949 µM): 12.2%
viability, T/C (second compound 0.000949 µM, first compound 0.3 µM): 5.05%
viability, T/C (second compound 0.003 µM, first compound 0.000949 µM): 92.2%
viability, T/C (second compound 0.003 µM, first compound 0.003 µM): 84.3%
viability, T/C (second compound 0.003 µM, first compound 0.00949 µM): 43%
viability, T/C (second compound 0.003 µM, first compound 0.03 µM): 25.8%
viability, T/C (second compound 0.003 µM, first compound 0.0949 µM): 10.7%
viability, T/C (second compound 0.003 µM, first compound 0.3 µM): 7.84%
viability, T/C (second compound 0.00949 µM, first compound 0.000949 µM): 89.5%
viability, T/C (second compound 0.00949 µM, first compound 0.003 µM): 96.3%
viability, T/C (second compound 0.00949 µM, first compound 0.00949 µM): 63.1%
viability, T/C (second compound 0.00949 µM, first compound 0.03 µM): 27.6%
viability, T/C (second compound 0.00949 µM, first compound 0.0949 µM): 10.5%
viability, T/C (second compound 0.00949 µM, first compound 0.3 µM): 7.04%
viability, T/C (second compound 0.03 µM, first compound 0.000949 µM): 96.3%
viability, T/C (second compound 0.03 µM, first compound 0.003 µM): 94.1%
viability, T/C (second compound 0.03 µM, first compound 0.00949 µM): 52.5%
viability, T/C (second compound 0.03 µM, first compound 0.03 µM): 29.2%
viability, T/C (second compound 0.03 µM, first compound 0.0949 µM): 10.9%
viability, T/C (second compound 0.03 µM, first compound 0.3 µM): 4.84%
viability, T/C (second compound 0.0949 µM, first compound 0.000949 µM): 91.5%
viability, T/C (second compound 0.0949 µM, first compound 0.003 µM): 67.8%
viability, T/C (second compound 0.0949 µM, first compound 0.00949 µM): 43.4%
viability, T/C (second compound 0.0949 µM, first compound 0.03 µM): 19.7%
viability, T/C (second compound 0.0949 µM, first compound 0.0949 µM): 5.98%
viability, T/C (second compound 0.0949 µM, first compound 0.3 µM): 3.35%
viability, T/C (second compound 0.3 µM, first compound 0.000949 µM): 68.7%
viability, T/C (second compound 0.3 µM, first compound 0.003 µM): 64.1%
viability, T/C (second compound 0.3 µM, first compound 0.00949 µM): 45.9%
viability, T/C (second compound 0.3 µM, first compound 0.03 µM): 10.6%
viability, T/C (second compound 0.3 µM, first compound 0.0949 µM): 4.63%
viability, T/C (second compound 0.3 µM, first compound 0.3 µM): 2.53%

Nc1ccn(C2OC(CO)C(O)C2(F)F)c(=O)n1 (centres undefined) + C#Cc1c(F)ccc2cc(O)cc(-c3ncc4c(N5CC6CCC(C5)N6)nc(OCC56CCCN5CC(F)C6)nc4c3F)c12
IC50 (second compound 0.0316 µM): 0.0173 µM
IC50 (second compound 0.1 µM): 0.0164 µM
IC50 (second compound 0.316 µM): 0.0142 µM
IC50 (second compound 1 µM): 0.0182 µM
IC50 (second compound 3.16 µM): 0.0153 µM
IC50 (second compound 10 µM): 0.0153 µM
viability, T/C (second compound 0.0316 µM, first compound 0.00316 µM): 84%
viability, T/C (second compound 0.0316 µM, first compound 0.01 µM): 80.9%
viability, T/C (second compound 0.0316 µM, first compound 0.0316 µM): 15.7%
viability, T/C (second compound 0.0316 µM, first compound 0.1 µM): 8.52%
viability, T/C (second compound 0.0316 µM, first compound 0.316 µM): 8.6%
viability, T/C (second compound 0.0316 µM, first compound 1 µM): 8.88%
viability, T/C (second compound 0.1 µM, first compound 0.00316 µM): 87.7%
viability, T/C (second compound 0.1 µM, first compound 0.01 µM): 76.1%
viability, T/C (second compound 0.1 µM, first compound 0.0316 µM): 15.6%
viability, T/C (second compound 0.1 µM, first compound 0.1 µM): 8.78%
viability, T/C (second compound 0.1 µM, first compound 0.316 µM): 9.24%
viability, T/C (second compound 0.1 µM, first compound 1 µM): 9.6%
viability, T/C (second compound 0.316 µM, first compound 0.00316 µM): 80.7%
viability, T/C (second compound 0.316 µM, first compound 0.01 µM): 66.1%
viability, T/C (second compound 0.316 µM, first compound 0.0316 µM): 13.2%
viability, T/C (second compound 0.316 µM, first compound 0.1 µM): 7.37%
viability, T/C (second compound 0.316 µM, first compound 0.316 µM): 11.3%
viability, T/C (second compound 0.316 µM, first compound 1 µM): 10.4%
viability, T/C (second compound 1 µM, first compound 0.00316 µM): 94.8%
viability, T/C (second compound 1 µM, first compound 0.01 µM): 84.9%
viability, T/C (second compound 1 µM, first compound 0.0316 µM): 17.8%
viability, T/C (second compound 1 µM, first compound 0.1 µM): 7.27%
viability, T/C (second compound 1 µM, first compound 0.316 µM): 10.2%
viability, T/C (second compound 1 µM, first compound 1 µM): 9.53%
viability, T/C (second compound 3.16 µM, first compound 0.00316 µM): 82.5%
viability, T/C (second compound 3.16 µM, first compound 0.01 µM): 69.7%
viability, T/C (second compound 3.16 µM, first compound 0.0316 µM): 16.5%
viability, T/C (second compound 3.16 µM, first compound 0.1 µM): 10.8%
viability, T/C (second compound 3.16 µM, first compound 0.316 µM): 10.5%
viability, T/C (second compound 3.16 µM, first compound 1 µM): 10.3%
viability, T/C (second compound 10 µM, first compound 0.00316 µM): 92.4%
viability, T/C (second compound 10 µM, first compound 0.01 µM): 71.2%
viability, T/C (second compound 10 µM, first compound 0.0316 µM): 14.2%
viability, T/C (second compound 10 µM, first compound 0.1 µM): 11.5%
viability, T/C (second compound 10 µM, first compound 0.316 µM): 10.9%
viability, T/C (second compound 10 µM, first compound 1 µM): 9.84%

Source: PubChem BioAssay AID2060906 (Molecular Pharmacology Branch, DTP, NCI, 2025)
